Assay results as given in article PMC6271500, “Bowman-Birk Protease Inhibitor from Vigna unguiculata Seeds Enhances the Action of Bradykinin-Related Peptides” (Molecules, 2014).

Experiments:
[1] = test system: BTCI; assay: Fluorescence quenching of BTCI by Bk-related peptides; assay type: binding, Vigna unguiculata; conditions: for Binding constant Kb (association) of BTCI in complex with peptide / Stern-Volmer quenching constant KSV of BTCI in complex with peptide: BTCI 25 µM, peptide 25-500 µM; for Stern-Volmer quenching constant KSV of BTCI in complex with peptide: excitation 295 nm, emission at 355 nm
Method: Fluorescence measurements were performed at pH 5.0, 7.4 and 9.0 and 25 °C using the Jasco FP-6500 spectrofluorimeter (Jasco Analytical Instruments) coupled to a Jasco ETC-273T Peltier system (Jasco Analytical Instruments) with water circulation. Both excitation and emission slit were fitted to 5.0 nm and the excitation and emission wavelength were 295 nm and 300–400 nm, respectively. The concentration of BTCI was 25 µM, whereas the concentration of Bk and Bk-related peptides varied from 25 to 500 µM. The BTCI in complex with peptides were investigated by fluorescence quenching as a function of pH. The averages of five fluorescence spectra were recorded and processed by the program Spectra Manager (Jasco Analytical Instruments). The fluorescence emissions were fitted according to the classic Stern-Volmer equation (Equation (2)): F0/F = 1 + KSV[Q] (2) where F and F0 are the fluorescence intensities in the presence and absence of quencher, respectively, KSV is Stern-Volmer constant and Q is the concentration of the quencher.
The binding constants for BTCI, Bk and Bk-related peptides interaction were calculated according to Equation (3): Log[(F0 − F)/F] = LogKb + nLog[Q] (3) where Kb is the binding constant and n is the number of binding sites per BTCI [47].

[2] = test system: bovine pancreatic trypsin; assay: Trypsin inhibition by BTCI (BAPNA substrate); assay type: biochemical; conditions: BTCI 10 µM, peptide 0–10 µM
Method: The inhibitory activities of BTCI against bovine pancreatic trypsin (25 kDa; A280^1% = 15.90) and chymotrypsin (24 kDa; A280^1% = 20.40) (Sigma Co.) were first determined in the absence of Bk and Bk-related peptides. Briefly, the residual enzymatic activities were assayed by mixing 40 µL of chymotrypsin (28.60 µM) or trypsin (2.57 µM) with BTCI at concentration range of 0–10 µM for trypsin and 0–40 µM for chymotrypsin at 25 °C for 15 minutes. After that, 200 µL of 0.40·mg·mL^−1 N-glutaryl-L-phenylalanine-p-nitroanilide (GPNA) in 50 mM Tris-HCl, 20 mM CaCl2, pH 7.6 for chymotrypsin assay or 0.43 mg·mL^−1 Nα-benzoyl-DL-arginine 4-nitroanilide hydrochloride (BAPNA) in 50 mM Tris-HCl, 20 mM CaCl2, pH 8.2 for trypsin assay were added. Substrate hydrolysis was done for 15 minutes and stopped by adding 30% (v/v) acetic acid. The enzymatic assays were also carried out in the presence of Bk at similar concentration of BTCI. The relative enzymatic activities were evaluated by the liberation of p-nitroanilide, which was monitored at 410 nm using a SpectraMax Plus 384 Microplate Reader spectrophotometer (Molecular Devices, Sunnyvale, CA, USA). The obtained values are an average of three independent measurements. Inhibition curves were obtained by plotting relative activities of the proteases vs. BTCI concentration in the absence or presence of Bk and Bk-related peptides. […]

With [Val]^1[Thr]^6-bradykinyl-Gln-Ser [Bk2] the “binding sites (n) per BTCI molecule” value ([1]; pH 5.0, 25 °C) was 1.04, the “Binding constant Kb (association) of BTCI in complex with peptide” value (“Binding constant Kb (association)” for short) ([1]; pH 5.0, 25 °C) was 590 M⁻¹ and the “Stern-Volmer quenching constant KSV of BTCI in complex with peptide” value (from here on “Stern-Volmer quenching constant KSV”) ([1]; pH 5.0, 25 °C) was 425 M⁻¹. The “binding sites (n) per BTCI molecule” value ([1]; pH 7.4, 25 °C) was 0.89, the “Binding constant Kb (association)” value ([1]; pH 7.4, 25 °C) was 220 M⁻¹ and the “Stern-Volmer quenching constant KSV” value ([1]; pH 7.4, 25 °C) was 509 M⁻¹. The “binding sites (n) per BTCI molecule” value ([1]; pH 9.0, 25 °C) was 1.23, the “Binding constant Kb (association)” value ([1]; pH 9.0, 25 °C) was 1810 M⁻¹ and the “Stern-Volmer quenching constant KSV” value ([1]; pH 9.0, 25 °C) was 384 M⁻¹. The “effect of peptide on BTCI inhibition of trypsin” value [2] was “did not interfer in their activities”.
